Laboratory results taken from PMC8285423, “In vitro efficacy of artemisinin-based treatments against SARS-CoV-2” (Scientific Reports, 2021).
pEC50: −log10 of the molar value. Converted amounts (≈) assume the structure as drawn.

Legend:
in vitro = conditions: African green monkey
Method: (§1) To evaluate cytotoxic effects of the tested extracts, compounds, and diluents (DMSO), cell viability was monitored using the CellTiter 96 AQueous One Solution Cell Proliferation Assay (Promega, Madison, WI, USA). VeroE6 cells, Huh7.5 cells or A549-hACE2 cells were plated at 10,000, 8000 or 10,000 cells per well of flat bottom 96-well plates, respectively (Thermo Fisher Scientific, Roskilde, Denmark). The next day, medium was exchanged to contain specified concentrations of extracts or compounds or dilutions of DMSO adding 100 µL per well. Each concentration or dilution was tested in 3 replicates; at least 6 nontreated control wells were included in the assay. For VeroE6 cells and A549-hACE2 cells, after 48 ± 2 h, and for Huh7.5 cells, after 72 ± 2 h of incubation at 37 °C and 5% CO2, 20 µL CellTiter 96 AQueous One Solution Reagent was added per well and plates were incubated for 1.5 to 2 h at 37 °C and 5% CO2, prior to recording absorbance at 492 nm using a FLUOstar OPTIMA 96-well plate reader (BMG LABTECH, Offenburg, Germany). Absorbance recorded in each well was related to the average absorbance of nontreated control wells to calculate the percentage of cell viability. Datapoints included in figures are means of triplicates from one independent experiment with SEM. Sigmoidal dose response curves were fitted and median cytotoxic concentration (CC50) values were calculated with GraphPad Prism 8.0.0 using a bottom constraint of 0 and the formula Y = Top/(1 + 10^((LogCC50-X) * HillSlope)) as further specified in Figures S5, S7, and S9.

[1] = Cell viability assay (CellTiter 96 AQueous One) in A549-hACE2 cells; assay type: cell-based; conditions: human, no infection
[2] = test system: SARS-CoV-2/human/Denmark/DK-AHH1/2020; assay: Concentration–response treatment antiviral assay in VeroE6 cells (spike immunostaining); assay type: cell-based; conditions: for EC50 / concentration at which almost / close to complete virus inhibition was achieved: VeroE6 cells; for EC50: added 1 h post infection, 2-day incubation, read-out: EC50 Treatment assay; for concentration at which almost / close to complete virus inhibition was achieved: treatment assay
[3] = test system: SARS-CoV-2/human/Denmark/DK-AHH1/2020; assay: microbe, parasite or virus in culture; assay type: cell-based; conditions: for EC50: Severe acute respiratory syndrome coronavirus 2, 48 h
[4] = test system: SARS-CoV-2/human/Denmark/DK-AHH1/2020; assay: Concentration–response pretreatment antiviral assay in VeroE6 cells (spike immunostaining); assay type: cell-based; conditions: for EC50: Severe acute respiratory syndrome coronavirus 2, Vero C1008, added 1.5 h prior to infection, 2-day incubation
SARS-CoV-2 = assay: Treatment assays summarised over different cell types (VeroE6, Huh7.5, A549-hACE2); assay type: cell-based; conditions: Severe acute respiratory syndrome coronavirus 2, VeroE6, Huh7.5, A549-hACE2 cells, read-out: range of 50% effective concentrations (EC50) in different cell types
[5] = test system: SARS-CoV-2/human/Denmark/DK-AHH1/2020; assay: microbe, parasite or virus in culture; assay type: cell-based
[6] = Cell viability assay (CellTiter 96 AQueous One) in Huh7.5 cells; conditions: human
Method: as §1

[7] = Cell viability assay (CellTiter 96 AQueous One) in VeroE6 cells; conditions: African green monkey
Method: as §1

[8] = test system: SARS-CoV-2/human/Germany/BavPat 1/2020; assay: Plaque reduction antiviral assay (pretreatment) in VeroE6 cells; assay type: cell-based; conditions: addition prior to virus addition
[9] = test system: SARS-CoV-2/human/Denmark/DK-AHH1/2020; assay: Time-of-addition experiment with artesunate in A549-hACE2 cells; assay type: cell-based; conditions: for inhibition at 14 µg/mL: read-out: inhibition of viral infection
[10] = test system: SARS-CoV-2 isolate from Wuhan; set-up: method as in earlier work; conditions: VeroE6 cells, assay terminated 24 h post infection, ref 22 (Cao et al.); cited from earlier work
[11] = animal studies; single dose; cited from earlier work
[12] = Severe acute respiratory syndrome coronavirus 2, Vero C1008
[13] = A549-hACE2 cells, treatment assay, added directly after inoculation, 2-day incubation, read-out: EC50
[14] = Severe acute respiratory syndrome coronavirus 2, 72 h, Huh7.5 cells, treatment assay, added directly after inoculation, 3-day incubation, read-out: EC50

Structure (SMILES) | CC50 at 48 h [1] [mg/L] | EC50 [2, 12] [mg/L] | concentration at which almost / close to complete virus inhibition was achieved [2] [µg/mL] | EC50 [4] [mg/L] | EC50 (SARS-CoV-2) [mg/L] | CC50 at 72 h [6] [mg/L] | CC50 at 48 h [7] [mg/L] | EC50 [3, 13] [mg/L] | EC50 [5, 14] [mg/L] | other results
CO[C@H]1O[C@@H]2O[C@@]3(C)CC[C@H]4[C@H](C)CC[C@@H]([C@H]1C)[C@@]24OO3 [Artemether] | 380 (≈ 1270 µM) | 98 | ≥ 153 | 147 (≈ 493 µM) | 53 to 98 (≈ 178 to 328 µM) | 127 (≈ 426 µM) | – | – | – | CC50 at 48 h (in vitro): 360 mg/L (≈ 1210 µM); concentration with close to complete virus inhibition ([3]; A549-hACE2 cells, treatment assay): 92 µg/mL; EC50 [3]: 53 mg/L (≈ 178 µM); inhibition at 153 µg/mL ([4]; Severe acute respiratory syndrome coronavirus 2, Vero C1008, pretreatment assay, 153 µg/mL, read-out: virus inhibition): 52%; EC50 ([5]; Severe acute respiratory syndrome coronavirus 2, Huh7.5, 72 h): 64 mg/L (≈ 214 µM); inhibition at 65 µg/mL ([5]; Severe acute respiratory syndrome coronavirus 2, Huh7.5, read-out: virus inhibition): 56%
C[C@@H]1CC[C@H]2[C@@H](C)C(=O)O[C@@H]3O[C@@]4(C)CC[C@@H]1[C@]32OO4 [Artemisinin] | 1530 (≈ 5410 µM) | 151 | 1208 | 238 (≈ 843 µM) | – | 5070 (≈ 17900 µM) | 8220 (≈ 29100 µM) | 168 (≈ 595 µM) | > 208 | effect on plaque formation (in words) [8]: little antiviral activity; concentration at which almost / close to complete virus inhibition was achieved ([4]; pretreatment assay): 893 µg/mL; virus inhibition ([5]; Huh7.5 cells, treatment assay, highest evaluated (non-cytotoxic) concentration 208 µg/mL): no significant virus inhibition; inhibition at 208 µg/mL ([5]; Severe acute respiratory syndrome coronavirus 2, Huh7.5 cells, treatment assay, highest evaluated (non-cytotoxic) concentration 208 µg/mL): < 50%
C[C@H]1[C@H](OC(=O)CCC(=O)O)O[C@@H]2O[C@@]3(C)CC[C@H]4[C@H](C)CC[C@@H]1[C@@]24OO3 [Artesunate] | 27 (≈ 70.2 µM) | 7 | 15 | – | 7 to 12 (≈ 18.2 to 31.2 µM) | 93 (≈ 242 µM) | 41 (≈ 107 µM) | 12 (≈ 31.2 µM) | 11 (≈ 28.6 µM) | inhibition of viral infection ([9]; 14 µg/mL, added 0 h post inoculation, present during the 2 h viral infection phase): did not result in inhibition; inhibition at 14 µg/mL ([9]; Severe acute respiratory syndrome coronavirus 2, added 2 h post inoculation): ≥ 80%; inhibition at 14 µg/mL ([9]; Severe acute respiratory syndrome coronavirus 2, added 4 h post inoculation): ≥ 80%; inhibition at 14 µg/mL ([9]; Severe acute respiratory syndrome coronavirus 2, added 6 h post inoculation): ≥ 80%; pEC50 [10]: 4.89; pEC50 ([2]; Severe acute respiratory syndrome coronavirus 2, Vero C1008, VeroE6 treatment assay, read-out: EC50): 4.74; inhibition at 14 µg/mL ([3]; Severe acute respiratory syndrome coronavirus 2, A549-hACE2 cells, treatment assay, highest evaluated concentration 14 µg/mL): 63%; inhibition at 15 µg/mL ([4]; Severe acute respiratory syndrome coronavirus 2, Vero C1008, pretreatment assay, 15 µg/mL (highest evaluated concentration), read-out: virus inhibition): 69%; concentration with close to complete virus inhibition ([5]; Huh7.5 cells, treatment assay): 22 µg/mL; tissue concentrations (lung, kidney, intestine, spleen) versus plasma concentrations [11]: several-fold higher
